How the values were obtained:
Type in all cases: biochemical
[1] = molecular target: T1, JAK3 (Homo sapiens, UniProt P52333); assay: Z'-LYTE kinase assay, JAK3 tyrosine phosphorylation activity
T1 construct: 5 μl of catalytic domain recombinant Kinase enzyme+Tyr peptide substrate (Invitrogen, Calif.); purchased Invitrogen
Procedure, shortened: (§1)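 Catalytic domain + Tyr6 peptide + ATP + cpd (1% DMSO), 1 h RT; development protease 1 h RT; FRET ex 400/em 445, 520 nm; % phosphorylation vs no-inhibitor; IC50 by 4-parameter logistic; duplicates.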

[2] = molecular target: T2, JAK1 (Homo sapiens, UniProt P23458); assay: Z'-LYTE kinase assay, JAK1 tyrosine phosphorylation activity; details: read-out: JAK 1 IC50
T2 construct: 5 μl of catalytic domain recombinant Kinase enzyme+Tyr peptide substrate (Invitrogen, Calif.); purchased Invitrogen
T2 sequence (P23458 875-1153 limits assumed): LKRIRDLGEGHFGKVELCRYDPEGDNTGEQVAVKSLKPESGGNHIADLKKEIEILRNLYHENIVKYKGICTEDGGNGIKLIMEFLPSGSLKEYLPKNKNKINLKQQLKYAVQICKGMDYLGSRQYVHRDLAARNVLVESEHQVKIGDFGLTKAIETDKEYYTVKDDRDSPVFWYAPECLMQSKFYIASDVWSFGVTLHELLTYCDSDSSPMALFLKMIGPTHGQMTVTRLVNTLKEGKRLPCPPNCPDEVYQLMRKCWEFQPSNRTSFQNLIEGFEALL
Procedure, shortened: as §1

[3] = molecular target: T3, JAK2 (Homo sapiens, UniProt O60674); assay: Z'-LYTE kinase assay, JAK2 tyrosine phosphorylation activity
T3 construct: 5 μl of catalytic domain recombinant Kinase enzyme+Tyr peptide substrate (Invitrogen, Calif.); purchased Invitrogen
T3 sequence (O60674 849-1124 limits assumed): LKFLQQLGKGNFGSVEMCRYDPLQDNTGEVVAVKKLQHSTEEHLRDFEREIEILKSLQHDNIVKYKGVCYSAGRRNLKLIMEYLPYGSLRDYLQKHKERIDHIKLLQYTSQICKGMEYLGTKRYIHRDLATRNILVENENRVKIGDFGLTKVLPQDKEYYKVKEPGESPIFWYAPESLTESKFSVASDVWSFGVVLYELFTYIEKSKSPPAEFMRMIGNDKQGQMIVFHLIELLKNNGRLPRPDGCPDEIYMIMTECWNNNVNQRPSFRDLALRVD
Procedure, shortened: as §1

[4] = molecular target: T4, TYK2 (Homo sapiens, UniProt P29597); assay: Z'-LYTE kinase assay, TYK2 tyrosine phosphorylation activity
T4 construct: 5 μl of catalytic domain recombinant Kinase enzyme+Tyr peptide substrate (Invitrogen, Calif.); purchased Invitrogen
T4 sequence (P29597 897-1176 limits assumed): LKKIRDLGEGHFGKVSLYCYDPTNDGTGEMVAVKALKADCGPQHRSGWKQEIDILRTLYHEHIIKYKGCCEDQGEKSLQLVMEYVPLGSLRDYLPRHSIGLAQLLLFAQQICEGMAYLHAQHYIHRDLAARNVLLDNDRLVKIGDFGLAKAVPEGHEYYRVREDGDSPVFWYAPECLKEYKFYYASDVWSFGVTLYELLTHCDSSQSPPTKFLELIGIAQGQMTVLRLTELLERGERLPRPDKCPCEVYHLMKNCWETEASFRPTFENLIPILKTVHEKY
Description: JAK and TYK2 tyrosine phosphorylation activity is measured using the Z′-LYTE™ Technology developed by Invitrogen Corporation (Carlsbad, Calif.). For JAK1, JAK2 and JAK3 the Z′-LYTE™ Kinase Assay Kit-Tyr6 Peptide (part number PV4122) was used. For TYK2 the Z′-LYTE™ Kinase Assay Kit-Tyr6 Peptide (part number PV3192) was used. The Z′-LYTE™ biochemical assay employs a fluorescence resonance energy transfer (FRET) coupled-enzyme format and is based on the differential sensitivity of phosphorylated and non-phosphorylated peptides to proteolitic cleavage. The assay uses a synthetic peptide substrate that is labelled with a donor fluorophore (coumarin) and an acceptor fluorophore (fluorescein) that make up a FRET pair. In the primary reaction (the Kinase Reaction), the kinase transfers the γ-phosphate of ATP to a single tyrosine residue on the substrate, while the presence of a kinase inhibitor in the primary reaction suppresses phosphorylation. In the secondary reaction (the Development Reaction), a site-specific protease (the Development Reagent) is added. The development buffer quenches the Kinase Reaction, while the protease recognizes and cleaves non-phosphorylated Z′-LYTE™ peptide substrate. Cleavage disrupts FRET between the donor and acceptor fluorophores on the non-phosphoryleted substrate, while uncleaved, phosphorylated substrate maintains FRET.
To test the ability of candidate molecules to inhibit JAK tyrosine phosphorylation activity, molecules are reconstituted in 100% DMSO and serially diluted 1:10 in polypropylene v-bottom microtiter plates. The candidate molecules are then diluted 1:25 into kinase buffer and 2.5 μl transferred into duplicate wells of a 384 well low volume black microtiter assay plate (Corning, USA). The final DMSO concentration in the assay is 1%. The kinase reaction contains 2.5 μl of a candidate molecule, 5 μl of catalytic domain recombinant Kinase enzyme+Tyr peptide substrate (Invitrogen, Calif.) and 2.5 μl ATP (Invitrogen, Calif.). The kinase reaction is allowed to procede for 1 hour at room temperature. The protease reaction is initiated by the addition of 5 μl Development Reagent (Invitrogen, Calif.). After 1 hour incubation at room temperature the fluorescence is measured using a FlexStation plate reader (Molecular Devices, Sunnyvale, Calif.). The reader settings used are as follows: Fluorescence mode, endpoint, top read, excitation 400 nm, emission 445 nm and 520 nm, Auto Cutoff 435 nm and 515 nm, PMT sensitivity high, 6 reads per well. Inhibition of JAK activity is calculated as the percent phosphorylation of substrate in the presence of inhibitor compared to the percent phosphorylation of substrate in the absence of inhibitor. IC50's were derived using Xlfit 4.3 (IDBS, UK), 4 parameter logistic model 205: Y=(A+((B−A)/(1+((C/x)^D)))).

T1 sequence (P52333 822-1111 limits assumed): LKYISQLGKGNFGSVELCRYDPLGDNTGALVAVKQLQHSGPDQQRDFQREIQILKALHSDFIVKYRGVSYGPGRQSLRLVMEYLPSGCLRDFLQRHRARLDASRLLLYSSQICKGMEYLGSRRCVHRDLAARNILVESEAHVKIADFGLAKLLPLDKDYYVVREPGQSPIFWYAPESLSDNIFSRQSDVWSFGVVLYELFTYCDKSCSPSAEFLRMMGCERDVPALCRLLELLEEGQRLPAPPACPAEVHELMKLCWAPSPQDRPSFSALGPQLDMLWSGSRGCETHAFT

| SMILES | IC50 [1] [nM] | IC50 [2] [nM] | IC50 [3] [nM] | IC50 [4] [nM] |
| --- | --- | --- | --- | --- |
| CC(=O)Nc1cccc(Nc2ncc(C(N)=O)c(N[C@H](C)C(N)=O)n2)c1 [Example 91, (R)-2-(3-acetamidophenylamino)-4-(1-amino-1-oxopropan-2-ylamino)pyrimidine-5-carboxamide] | 10 to 100 | 10 to 100 | 10 to 100 | 10 to 100 |
| CC[C@H](C)Nc1nc(Nc2ccc(Cl)c(NC(=O)N3CCCC3)c2)ncc1C(N)=O [Example 176, (S)-4-(sec-butylamino)-2-(4-chloro-3-(pyrrolidine-1-carboxamido)phenylamino)pyrimidine-5-carboxamide] | 10 to 100 | 10 to 100 | 100 to 1000 | 10 to 100 |
| CC(=O)Nc1cccc(Nc2ncc(C(N)=O)c(N[C@@H](C)C(C)C)n2)c1 [Example 247, (S)-2-(3-acetamidophenylamino)-4-(3-methylbutan-2-ylamino)pyrimidine-5-carboxamide] | 10 to 100 | 10 to 100 | 10 to 100 | 10 to 100 |
| CNC(=O)Nc1cc(Nc2ncc(C(N)=O)c(NCC3CC3)n2)ccc1Cl [Example 178, 2-(4-chloro-3-(3-methylureido)phenylamino)-4-(cyclopropylmethylamino)pyrimidine-5-carboxamide] | 10 to 100 | 100 to 1000 | 10 to 100 | 10 to 100 |
| CN1CCN(C(=O)Nc2cccc(Nc3ncc(C(N)=O)c(NCc4cccc(F)c4)n3)c2)CC1 [Example 258, 4-(3-fluorobenzylamino)-2-(3-(4-methylpiperazine-1-carboxamido)phenylamino)pyrimidine-5-carboxamide] | < 1 | 10 to 100 | 1 to 10 | 1 to 10 |
| CC(=O)Nc1cccc(Nc2ncc(C(N)=O)c(NCc3cccc(Cl)c3)n2)c1 [Example 101, 2-(3-acetamidophenylamino)-4-(3-chlorobenzylamino)pyrimidine-5-carboxamide] | 1 to 10 | 10 to 100 | 1 to 10 | 10 to 100 |
| CCn1ccc2c(Nc3nc(Nc4cccc(NC(C)=O)c4)ncc3C(N)=O)cccc21 [Example 185, 2-(3-acetamidophenylamino)-4-(1-ethyl-1H-indol-4-ylamino)pyrimidine-5-carboxamide] | 1 to 10 | 10 to 100 | 10 to 100 | 1 to 10 |
| CC(=O)Nc1cccc(Nc2ncc(C(N)=O)c(N[C@@H](CO)c3ccccc3)n2)c1 [Example 98, (R)-2-(3-acetamidophenylamino)-4-(2-hydroxy-1-phenylethylamino)pyrimidine-5-carboxamide] | 10 to 100 | 100 to 1000 | 100 to 1000 | 100 to 1000 |
| CC(=O)Nc1cccc(Nc2ncc(C(N)=O)c(NCC(C)C)n2)c1 [Example 235, 2-(3-acetamidophenylamino)-4-(isobutylamino)pyrimidine-5-carboxamide] | 1 to 10 | 10 to 100 | 10 to 100 | 1 to 10 |
| CC(=O)Nc1cc(Nc2ncc(C(N)=O)c(NCc3cccc(F)c3)n2)ccc1OCCN1CCCC1 [Example 223, 2-(3-acetamido-4-(2-(pyrrolidin-1-yl)ethoxy)phenylamino)-4-(3-fluorobenzylamino)pyrimidine-5-carboxamide] | 1 to 10 | 10 to 100 | 1 to 10 | 10 to 100 |
| NC(=O)c1cnc(Nc2cccc(NC(=O)N3CCCC3)c2)cc1NCc1ccccc1 [Example 326, 4-(benzylamino)-6-(3-(pyrrolidine-1-carboxamido)phenylamino)nicotinamide] | 1 to 10 | 100 to 1000 | 100 to 1000 | 10 to 100 |
| CC(C)[C@@H](C)Nc1nc(Nc2ccc(Cl)c(NC(=O)N3CCCC3)c2)ncc1C(N)=O [Example 253, (R)-2-(4-chloro-3-(pyrrolidine-1-carboxamido)phenylamino)-4-(3-methylbutan-2-ylamino)pyrimidine-5-carboxamide] | 1 to 10 | 10 to 100 | 10 to 100 | 1 to 10 |

Now from value to compound:

| IC50 [1] [nM] | IC50 [2] [nM] | IC50 [3] [nM] | IC50 [4] [nM] | SMILES |
| --- | --- | --- | --- | --- |
| 100 to 1000 | > 1000 | > 1000 | 100 to 1000 | CC(=O)Nc1cccc(Nc2cc(NC3Cc4ccccc4C3)c(C(N)=O)cn2)c1 [Example 333, 6-(3-acetamidophenylamino)-4-(2,3-dihydro-1H-inden-2-ylamino)nicotinamide] |
| 10 to 100 | 100 to 1000 | 10 to 100 | 100 to 1000 | CC(=O)Nc1cc(Nc2ncc(C(N)=O)c(Nc3cccc4nn(C)cc34)n2)ccc1OCCN1CCCC1 [Example 224, 2-(3-acetamido-4-(2-(pyrrolidin-1-yl)ethoxy)phenylamino)-4-(2-methyl-2H-indazol-4-ylamino)pyrimidine-5-carboxamide] |
| 10 to 100 | 100 to 1000 | 100 to 1000 | 10 to 100 | CC(=O)Nc1cccc(Nc2cc(NCC(C)C)c(C(N)=O)cn2)c1 [Example 323, 6-(3-acetamidophenylamino)-4-(isobutylamino)nicotinamide] |
| 10 to 100 | 100 to 1000 | 100 to 1000 | 100 to 1000 | CC(=O)Nc1cccc(Nc2cc(N[C@H](C)c3ccccc3)c(C(N)=O)cn2)c1 [Example 322, (R)-6-(3-acetamidophenylamino)-4-(1-phenylethylamino)nicotinamide] |
| 10 to 100 | > 1000 | 10 to 100 | 10 to 100 | CC(=O)Nc1cc(Cl)cc(Nc2ncc(C(N)=O)c(NCc3cccc(F)c3)n2)c1 [Example 261, 2-(3-acetamido-5-chlorophenylamino)-4-(3-fluorobenzylamino)pyrimidine-5-carboxamide] |
| 1 to 10 | 100 to 1000 | 10 to 100 | 100 to 1000 | CN(C(=O)N1CCCC1)c1cccc(Nc2ncc(C(N)=O)c(NCc3ccccc3)n2)c1 [Example 141, 4-(benzylamino)-2-(3-(N-methylpyrrolidine-1-carboxamido)phenylamino)pyrimidine-5-carboxamide] |
| 10 to 100 | > 1000 | 100 to 1000 | 100 to 1000 | C[C@@H](Nc1nc(Nc2ccc(Cl)c(NC(=O)N3CCCCC3)c2)ncc1C(N)=O)c1ccccc1 [Example 205, (R)-2-(4-chloro-3-(piperidine-1-carboxamido)phenylamino)-4-(1-phenylethylamino)pyrimidine-5-carboxamide] |
| 1 to 10 | 100 to 1000 | 10 to 100 | 10 to 100 | C[C@@H](Nc1nc(Nc2ccc(Cl)c(NC(=O)N3CCOCC3)c2)ncc1C(N)=O)c1ccccc1 [Example 183, (R)—N-(5-(5-carbamoyl-4-(1-phenylethylamino)pyrimidin-2-ylamino)-2-chlorophenyl)morpholine-4-carboxamide] |
| 100 to 1000 | > 1000 | > 1000 | 100 to 1000 | NC(=O)c1cnc(Nc2ccc(Cl)c(NC(=O)NC3CCC3)c2)nc1NCc1ccccc1 [Example 107, 4-(benzylamino)-2-(4-chloro-3-(3-cyclobutylureido)phenylamino)pyrimidine-5-carboxamide] |
| 10 to 100 | 10 to 100 | 10 to 100 | 10 to 100 | CC(C)CNc1nc(Nc2ccc(Cl)c(NC(=O)N3CCCC3)c2)ncc1C(N)=O [Example 236, 2-(4-chloro-3-(pyrrolidine-1-carboxamido)phenylamino)-4-(isobutylamino)pyrimidine-5-carboxamide] |

From US8853230B2, “Inhibitors of JAK” (Portola Pharmaceuticals, Inc., priority 2009, dated 2014)
